Experimental data: patent US10738061B2, “Inhibitors of RAD52 recombination protein and methods using same” (Drexel University, priority 2015, dated 2020)

Tests used:
[1] = biological target: T1, RAD52 (Homo sapiens, UniProt P43351); test: D-loop formation (DNA pairing) by RAD52; format: biochemical; settings: three independent repeats, read-out: Inhibition of DNA pairing (D-loop formation), IC50
T1 construct: made in house
T1 sequence (P43351 1-418): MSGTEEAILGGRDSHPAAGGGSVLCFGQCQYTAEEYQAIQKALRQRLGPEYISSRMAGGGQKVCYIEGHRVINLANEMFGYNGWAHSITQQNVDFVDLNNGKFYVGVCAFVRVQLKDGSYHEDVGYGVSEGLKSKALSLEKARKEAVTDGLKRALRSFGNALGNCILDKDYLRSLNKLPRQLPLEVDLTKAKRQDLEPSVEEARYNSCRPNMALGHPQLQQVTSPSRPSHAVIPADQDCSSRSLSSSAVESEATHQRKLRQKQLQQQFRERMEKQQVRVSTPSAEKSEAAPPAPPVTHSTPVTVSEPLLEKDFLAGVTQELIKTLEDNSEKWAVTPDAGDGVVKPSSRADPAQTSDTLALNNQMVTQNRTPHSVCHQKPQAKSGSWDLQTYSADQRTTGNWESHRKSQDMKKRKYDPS
Procedure: Cisplatin was purchased from Sigma-Aldrich. Human RAD52 and RAD51 were purified as described (Bugreev et al., 2005, Mol. Cell. Biol. 33, 387-395). The oligonucleotides (Table 2) were purchased from IDT, Inc and further purified by electrophoresis (Rossi et al., 2010, Methods 51, 336-346). Supercoiled pUC19 plasmid DNA was purified using Qiagen kits. All DNA concentrations are expressed as moles of nucleotide.
To form RAD52 nucleoprotein complexes, RAD52 (0.45 μM) was incubated with a ^32P-labeled ssDNA (oligo 90/SEQ ID NO: 4) (3 μM, nt) in buffer containing 25 mM Tris-Acetate, pH 7.5, 100 μg·ml-1 BSA, 0.3 mM magnesium acetate, and 2 mM DTT at 37° C. for 15 min. To form RAD51 nucleoprotein filament, RAD51 (1 μM) was incubated with ^32P-labeled ssDNA (3 μM, nt) in buffer containing 25 mM Tris-Acetate, pH 7.5, 100 μg·ml-1 BSA, 1 mM calcium chloride, 1 mM ATP and 2 mM DTT for 15 min at 37° C. Then inhibitors were added to both reactions and incubation continued for 15 min at 37° C. D-Loop formation was initiated by addition of supercoiled pUC19 DNA (50 μM, nucleotides) and was carried out 15 min at 37° C. The reactions were stopped and deproteinized by the addition of 1.5% SDS and proteinase K (0.8 mg/ml) for 15 min at 37° C., mixed with a 0.10 volume of loading buffer (70% glycerol, 0.1% bromphenol blue), and analyzed by electrophoresis in 1% agarose gels in TAE buffer (40 mM Tris acetate, pH 8.3, and 1 mM EDTA) at 5 V/cm for 3 h. The gels were dried on DEAE-81 paper (Whatman) and the yield of D-loops quantified using a Storm 840 PhosphorImager and ImageQuant 5.2 (GE Healthcare). The D-loop yield was expressed as a percentage of plasmid DNA carrying D-loops relative to the total plasmid DNA.
IC50 values were calculated using GraphPad Prism V5.0 software. The data were obtained from three independent repeats of experiments.
The inhibitory effect of the 70 selected compounds were tested using the D-loop assay, in which RAD52 promotes pairing between 32P-labeled ssDNA and homologous supercoiled plasmid pUC19 DNA (FIG. 1D); the product of the reaction, D-loops, were analyzed by electrophoresis in 1% agarose gels. […] Then, the effects of each of the 17 compounds on RAD52-dependent D-loop formation were measured in a concentration dependent manner.

[2] = biological target: T1, RAD52; test: Fluorescence-quenching assay for RAD52 ssDNA annealing (HTS); format: biochemical
Procedure: Tailed dsDNA substrate was prepared by thermal annealing of ssDNA oligonucleotides 337-F and 1337-BHQ1 (SEQ ID NO: 2) containing Fluorescein and Black Hole Quencher 1 residues at the 5′ and 3′ end, respectively. […] The fluorescence intensity was measured in a 3-mm quartz cuvette (Starna Cells) using a FluoroMax-3 (HORIBA) fluorimeter with 492 nm excitation wavelength and 520 nm emission wavelength at 30° C. for at least 2000 s.
The HTS was performed using the 8 channel BioRAPTR 1536 (Beckman) for reagent dispensing. […] Wells containing no RAD52 enzyme were used to as positive control, and data were analyzed using Genedata.
A fluorescence-quenching assay was used to screen for inhibitors of RAD52 ssDNA annealing activity (FIGS. 1A-1E). […] Annealing promoted by RAD52 between ssDNA and tdsDNA led to displacement of the FLU-carrying DNA strand from the tdsDNA and in an increase in fluorescence due to secession of fluorescence quenching by the BHQ1 group (FIG. 1B).
The fluorescence-quenching assay was optimized for 1,536 well plates (Z′ Avg=0,64). […] The hits were further analyzed for a concentration dependence in inhibiting of RAD52 and by testing their DNA binding affinity using the acridine orange assay.

[3] = test system: UWB1.289 (BRCA1-) and UWB1.289 (+BRCA1) cells; test: Luminescent cell viability assay, BRCA1-deficient versus proficient cells; format: cell-based, Human; settings: 9 days exposure
Procedure: (§1) BxPC3 cells were kept in RPMI 1640 (ATCC) media supplemented with 10% FBS (Gibco). Capan-1/BxPC3 Capan-1 cells were kept in IMDM (ATCC) media containing 20% FBS (GIBCO). […] cells were kept in 48.5% RPMI1640 (ATCC), 48.5% MEGM (Clonetics/Lonza, MEGM kit, CC-3150) and 3% FBS (GIBCO) respectively. Cells in log-phase were harvested and 100 μl cell suspensions were replated in a 96-well plate with a final density of 4000 cells/well. After overnight growth, cells were treated with indicated concentrations of compounds. Media containing the invariant concentration of compounds were refreshed every 3 days until cells were finally lysed by 30 μl/well of Promega CellTiter-Glo reagents and read on a Promega GloMax 96 reader on day 10 (9 days exposure).
(§2) BxPC3 cells were kept in RPMI 1640 (ATCC) media supplemented with 10% FBS (Gibco); Capan-1 cells were kept in IMDM (ATCC) media containing 20% FBS (GIBCO); UWB1.298 and UWB1.298 (BRCA1+) cells were kept in 48.5% RPMI1640 (ATCC), 48.5% MEGM (Clonetics/Lonza, MEGM kit, CC-3150) and 3% FBS (GIBCO) respectively. […] Media containing the invariant concentration of compounds were refreshed every 3 days until cells were finally lysed by 30 μl/well of Promega CellTiter-Glo reagents and read on a Promega GloMax 96 reader on day 10 (9 days exposure). […]

[4] = test system: Capan-1 (BRCA2-) and BxPC3 (BRCA2+) cells; test: Luminescent cell viability assay, BRCA2-deficient versus proficient cells; format: cell-based, Human; settings: 9 days exposure
Procedure: as §1, §2

[5] = test system: BRCA1/2-deficient cell lines; test: Growth of BRCA1/2-deficient cell lines (summary over tested lines); format: cell-based, Human
Procedure: as §1
as §1, with “(Gibco);” for “(Gibco). Capan-1/BxPC3”, “(GIBCO);” for “(GIBCO).”, “exposure). Promega CellTiter-Glo protocol is available on the web: www dot promega dot com/resources/protocols/technical-bulletins/0/celltiter-glo-luminescent-cell-viability-assay-protocol/” for “exposure).”
MDA-MB-436 cells were cultured in RPMI+10% FBS. BRCA-proficient and BRCA-deficient cells were plated on day 0 in triplicate at 5,000 cells/well. […] Cells were counted on day 4 on a hemocytometer, using Trypan Blue exclusion, and immediately were plated in a clonogenic assay at a density of 500 cells/well in a 6 well plate, in RPMI+10% FBS. […]

[6] = test system: MDA-MB-436 (BRCA1-) and MDA-MB-436 (BRCA1+) cells; test: Clonogenic survival assay; format: cell-based, Human
Procedure: MDA-MB-436 cells were cultured in RPMI+10% FBS. BRCA-proficient and BRCA-deficient cells were plated on day 0 in triplicate at 5,000 cells/well. […] Cells were counted on day 4 on a hemocytometer, using Trypan Blue exclusion, and immediately were plated in a clonogenic assay at a density of 500 cells/well in a 6 well plate, in RPMI+10% FBS. After two weeks, the colonies were fixed/stained with 0.05% of 10 mg/ml ethidium bromide in 50% ethanol and visualized with Alphaimager gel imager (Alpha Innotech).
Likewise, the effects of RAD52 inhibitors on the growth of BRCA1-deficient (UWB1.289 BRCA1^−) and BRCA1-proficient (UWB1.289 BRCA^+) cells were tested. 7 out 14 tested RAD52 inhibitors preferentially suppress the growth of BRCA1-deficient cells. Importantly, these 7 compounds included the 5 compounds that inhibited the growth of BRCA2-deficient cells (FIGS. 3E-3H). The effects of the 14 RAD52 inhibitors were tested on the survival of another BRCA1-deficient cells, and MDA-MB-436 cells. […] BRCA1-deficiency in these cells is due to constitutive downregulation of this protein.

| SMILES | IC50 [1] [µM] | IC50 [2] [µM] | effect on growth of BRCA1-deficient UWB1.289 cells versus UWB1.289 (+BRCA1) [3] | effect on growth of BRCA2-deficient Capan-1 cells versus BxPC3 [4] | preferential inhibition of BRCA1/2-deficient cell lines (summary) [5] | effect on survival of BRCA1-deficient MDA-MB-436 cells versus MDA-MB-436 (BRCA1+) [6] |
| --- | --- | --- | --- | --- | --- | --- |
| Cn1nc(-c2ccc(Cl)cc2)c2cc(C(=O)NCCCN3CCCCCC3)sc21 [D-I11, N-(3-(azepan-1-yl)propyl)-3-(4-chlorophenyl)-1-methyl-1H-thieno[2,3-c]pyrazole-5-carboxamide] | 6.7 ± 0.78 | 4.1 | – | – | – | – |
| Cc1cc(N2CCN(C)CC2)nc2ccc(NC(=S)NCCCN3CCN(C)CC3)cc12 [D-I01, 1-(4-methyl-2-(4-methylpiperazin-1-yl)quinolin-6-yl)-3-(3-(4-methylpiperazin-1-yl)propyl)thiourea] | 15.4 ± 0.57 | 3.6 | – | – | – | – |
| CCCN(CCC)CCCNC(=S)Nc1ccc2nc(N3CCN(C)CC3)cc(C)c2c1 [D-G11, 1-(3-(dipropylamino)propyl)-3-(4-methyl-2-(4-methylpiperazin-1-yl)quinolin-6-yl)thiourea] | 8.9 ± 1.6 | 6 | showed activity | showed activity | – | – |
| COc1ccc(OC)c(Nc2nc(NCCO)c3ccccc3n2)c1 [D-I05, 2-((2-((2,5-dimethoxyphenyl)amino)quinazolin-4-yl)amino)ethan-1-ol] | 8.8 ± 0.42 | 4.3 | – | – | preferentially inhibited at least two BRCA1/2-deficient cell lines | – |
| CCN1CCN(CCCNC(=S)Nc2ccc3nc(N(C)CCN)cc(C)c3c2)CC1 [D-E05, 1-(2-((2-aminoethyl)(methyl)amino)-4-methylquinolin-6-yl)-3-(3-(4-ethylpiperazin-1-yl)propyl)thiourea] | 11.3 ± 0.35 | 1.7 | – | – | – | – |
| Cc1ccc(-c2nc(C(=O)NCCCN3CCOCC3)cc3c2[nH]c2ccccc23)cc1 [D-C19, N-(3-morpholinopropyl)-1-(p-tolyl)-9H-pyrid[3,4-b]indole-3-carboxamide] | 4.3 ± 0.35 | 2 | – | – | – | – |
| Cc1ccc(C(=O)c2oc3ccc(Cl)cc3c2NC(=O)CN2CCN(C)CC2)cc1 [D-C17, N-(5-chloro-2-(4-methylbenzoyl)benzofuran-3-yl)-2-(4-methylpiperazin-1-yl)acetamide] | 17.6 ± 0.78 | 6 | – | – | – | – |
| COc1ccccc1Nc1nc(NCCCO)c2ccccc2n1 [D-K17, 3-((2-((2-methoxyphenyl)amino)quina-zolin-4-yl)amino)propan-1-ol] | 4.8 ± 0.85 | 2.9 | – | – | preferentially inhibited at least two BRCA1/2-deficient cell lines | – |
| Cc1c(C(=O)Nc2ccc(S(=O)(=O)N(C)C3CCN(C)CC3)cc2)oc2c(Cl)cccc12 [D-A21, 7-chloro-3-methyl-N-(4-(N-methyl-N-(1-methylpiperidin-4-yl)sulfamoyl)phenyl) benzofuran-2-carboxamide] | 16.2 ± 0.42 | 9.8 | – | – | – | – |
| CN1CCN(CCCNC(=O)c2cc3c(-c4ccc(Cl)cc4)nn(C)c3s2)CC1 [D-I07, 3-(4-chlorophenyl)-1-methyl-N-(3-(4-methylpiperazin-1-yl)propyl)-1H-thieno[2,3-c]pyrazole-5-carboxamide] | 2.7 ± 0.35 | 2 | – | – | – | – |
| Cn1nc(-c2ccc(Cl)cc2)c2cc(C(=O)NCCCN3CCCC3)sc21 [D-I19, 3-(4-chlorophenyl)-1-methyl-N-(3-(pyrrolidin-1-yl)propyl)-1H-thieno[2,3-c]pyrazole-5-carboxamide] | 4.1 ± 0.14 | 3.5 | – | – | – | – |
| CCN(CC)CCCN(Cc1cc2cc3c(cc2[nH]c1=O)OCO3)C(=S)NCCCN(C)C [D-A13, 1-(3-(diethylamino)propyl)-3-(3-(dimethylamino)propyl)-1-((6-oxo-5,6-dihydro-[1,3]dioxolo[4,5-g]quinolin-7-yl)methyl)thiourea] | 13.6 ± 0.64 | 5.2 | – | – | – | – |
| COc1ccc(-c2nc(C(=O)NCCCN3CCOCC3)cc3c2[nH]c2ccccc23)cc1OC [D-A19, 1-(3,4-dimethoxyphenyl)-N-(3-morpholinopropyl)-9H-pyrido[3,4-b]indole-3-carboxamide] | 7.2 ± 0.28 | 4.8 | – | – | – | – |
| CCCCN(CC)CCNC(=O)c1cc2c(-c3ccc(Cl)cc3)nn(C)c2s1 [D-I09, N-(2-(butyl(ethyl)amino)ethyl)-3-(4-chlorophenyl)-1-methyl-1H-thieno[2,3-c]pyrazole-5-carboxamide] | 10.6 ± 1.4 | 6.8 | – | – | – | – |
| CCCCN(CC)CCCNC(=S)Nc1ccc2nc(N3CCN(C)CC3)cc(C)c2c1 [D-G09, 1-(3-(butyl(ethyl)amino)propyl)-3-(4-methyl-2-(4-methylpiperazin-1-yl)quinolin-6-yl)thiourea] | 14.8 ± 2.47 | 2 | showed an inhibitory effect | showed an inhibitory effect | – | showed an inhibitory effect |
